In patent US5496805A, “Inhibitors of neutral endopeptidase” (priority 1990, dated 1996) one finds IC50 data, which are given here for 32 compounds.

Where a name gives a salt, the structure may show the parent alone.

Broadly, the IC50 is the concentration that inhibits the measured activity by half. Low readings indicate greater potency in that assay, high ones weaker potency in that assay.

This assay concerns the target T1, neutral endopeptidase (Rattus norvegicus, UniProt P07861).
T1 sequence (P07861 1-750): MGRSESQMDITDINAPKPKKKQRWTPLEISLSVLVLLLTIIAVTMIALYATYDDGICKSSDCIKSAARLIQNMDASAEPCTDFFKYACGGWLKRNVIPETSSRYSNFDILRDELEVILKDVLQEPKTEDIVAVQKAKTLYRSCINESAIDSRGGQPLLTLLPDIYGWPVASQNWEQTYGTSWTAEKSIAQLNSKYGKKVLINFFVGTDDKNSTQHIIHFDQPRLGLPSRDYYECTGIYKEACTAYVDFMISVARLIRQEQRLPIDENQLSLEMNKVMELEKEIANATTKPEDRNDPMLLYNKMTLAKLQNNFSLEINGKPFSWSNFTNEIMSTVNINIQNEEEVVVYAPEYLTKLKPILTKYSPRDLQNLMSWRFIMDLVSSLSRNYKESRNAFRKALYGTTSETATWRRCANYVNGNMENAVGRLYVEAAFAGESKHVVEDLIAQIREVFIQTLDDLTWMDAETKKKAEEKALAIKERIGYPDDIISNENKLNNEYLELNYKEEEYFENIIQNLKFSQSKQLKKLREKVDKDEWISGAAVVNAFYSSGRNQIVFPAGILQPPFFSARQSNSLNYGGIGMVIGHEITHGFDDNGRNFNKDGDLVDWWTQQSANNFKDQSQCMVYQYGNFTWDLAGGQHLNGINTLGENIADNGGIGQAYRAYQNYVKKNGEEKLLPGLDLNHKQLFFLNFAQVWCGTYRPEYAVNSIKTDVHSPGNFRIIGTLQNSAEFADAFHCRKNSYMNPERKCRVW
Description: biochemical. The note with it: enzyme purified from rat kidney; Dns-Gly-Phe-Arg 0.5 mM; pH 7.5; 37°, 30 minutes; inhibitor preincubated 10 minutes. The protocol:
The in vitro neutral endopeptidase activity is determined using a fluorometric assay procedure. The assay is based upon the cleavage of the fluorescent dansylated tripeptide Dns-Gly-Phe-Arg to form Dns-Gly. The latter is extracted from the acidified mixture by ethyl acetate and is strongly fluorescent.
The incubation mixture employed for the assay contains the substance Dns-Gly-Phe-Arg (0.5 mM), tris(hydroxymethyl)aminomethane -HCl buffer (pH 7.5, 50 mM), an enzyme preparation in 0.05% Triton X-100, and water or inhibitor diluted to a final volume of 0.25 ml. The enzyme preparation is purified from rat kidney according to the procedure described by Almenoff et al. in Biochemistry Vol. 22, p. 590-599 (1983). The inhibitor is preincubated for 10 minutes with the enzyme preparation and buffer before the reaction is initiated by the addition of the substrate. Incubation is carried out at 37° for 30 minutes and the reaction is stopped by the addition of 0.25 ml. 1N HCl and extraction of the Dns-Gly product into 1.5 ml. of ethyl acetate. Relative fluorescent intensity (RFI) of the ethyl acetate extract is measured using a Ferrand Spectofluorometer at excitation and emission wavelengths of 342 and 508 nm., respectively, corrected for the RFI of a zero-time control, and compared with assays lacking inhibitor.
Runs are made at different concentrations of test compound and by use of a mathematical model the IC50 is determined. The IC50 is the concentration of test compound that inhibits activity of the enzyme by 50%.
Take `CC(CS)C(=O)N[C@@H](CCCNC(=N)N)C(=O)O` (mixture of isomers) [Example 3, N-(DL-3-Mercapto-2-methyl-1-oxopropyl)-L-arginine]: the concentration for half-maximal inhibition (IC50) amounted to 720 nM.
The figure for `N=C(N)NCCC[C@H](NC(=O)C(CS)Cc1ccccc1)C(=O)O` (mixture of isomers) [Example 4, N-[DL-2-(Mercaptomethyl)-1-oxo-3,-phenylpropyl]-L-arginine] is 290 nM.
The figure for `CC(CS)C(=O)N[C@@H](Cc1c[nH]c2ccccc12)C(=O)O` (mixture of isomers) [Example 5, N-(DL-3-Mercapto-2-methyl-1-oxopropyl)-L-tryptophan] is 20 nM; for `CC(CS)C(=O)N[C@@H](Cc1ccc(O)cc1)C(=O)O` (mixture of isomers) [Example 6, N-(DL-3-Mercapto-2,methyl1-oxopropyl)-L-tyrosine] it is 13 nM.
As to `CC(CS)C(=O)N[C@@H](Cc1ccc(O)c(O)c1)C(=O)O` (mixture of isomers) [Example 7, 3-Hydroxy-N-(DL-3-mercapto-2-methyl-1-oxopropyl)-L-tyrosine], it took 54 nM to reach half-maximal inhibition (IC50).
The compound `CC(CS)C(=O)N[C@@H](Cc1ccccc1)C(=O)O` (mixture of isomers) [Example 17, (±)-N-(3-Mercapto-2-methyl-1-oxopropyl)-L-phenylalanine, 1,1-dimethylethanamine salt (1:1)] came in with an IC50 of 14 nM.
The figure for `CC(C)C[C@H](NC(=O)C(C)CS)C(=O)O` (mixture of isomers) [Example 18, (±)-N-(3-Mercapto-2-methyl-1-oxopropyl)-L-leucine, 1,1-dimethylethanamine salt (1:1)] is 69 nM; for `CC(CS)C(=O)N[C@@H](CCC(=O)O)C(=O)O` (mixture of isomers) [Example 19, (±)-N-(3-Mercapto-2-methyl-1-oxopropyl)-L-glutamic acid, 1,1-dimethylethanamine salt (1:2)] it is 110 nM; for `CC(CS)C(=O)N[C@@H](CO)C(=O)O` (mixture of isomers) [Example 21, (±)-N-(3-Mercapto-2-methyl-1-oxopropyl)-L-serine, N-cyclohexylcyclohexamine salt(1:1)] it is 280 nM.
With `CSCC[C@H](NC(=O)C(C)CS)C(=O)O` (mixture of isomers) [Example 23, (±)-N-(3-Mercapto-2-methyl-1-oxopropyl)-L-methionine, 1,1-dimethylethanamine salt (1:1)], half-maximal inhibition (IC50) was put at 49 nM.
Regarding `O=C(N[C@@H](Cc1ccc(O)c(O)c1)C(=O)O)C(CS)Cc1ccccc1` (mixture of isomers) [Example 24, (±)-3-Hydroxy-N-[2-(mercaptomethyl)-1-oxo-3-phenylpropyl]-L-tyrosine, 1,1-dimethylethanamine salt (1:1)], the IC50 came to 47 nM.
The figure for `CC(CS)C(=O)N[C@@H](C)C(=O)O` (mixture of isomers) [Example 25, (±)-N-(3-Mercapto-2-methyl-1-oxopropyl)-L-alanine, N-cyclohexylcyclohexanamine salt (1:1)] is 120 nM; for `O=C(NCCCC[C@H](NC(=O)C(CS)Cc1ccccc1)C(=O)O)OCc1ccccc1` (mixture of isomers) [Example 26, (±)-N^2-[2-(Mercaptomethyl)-1-oxo-3-phenylpropyl]-N^6-[(phenylmethoxy)carbonyl]-L-lysine, N-cyclohexylcyclohexanamine salt (1:1)] it is 32 nM.
`O=C(N[C@@H](Cc1c[nH]c2ccccc12)C(=O)O)C(CS)Cc1ccccc1` (mixture of isomers) [Example 28, (±)-N-[2-(Mercaptomethyl)-1-oxo-3-phenylpropyl]-L -tryptophan, 1,1-dimethylethanamine salt (1:1)]: it took 7.8 nM to reach half-maximal inhibition (IC50).
On to `CC(C)CC(CS)C(=O)NCC(=O)N[C@@H](CCCN=C(N)N)C(=O)O` (mixture of isomers) [Example 55, (±)-N-[N,[2-(Mercaptomethyl)-4-methyl-1-oxopentyl]-glycyl]-L-arginine], for which the half-maximal inhibitory concentration (IC50) stood at 530 nM.
Take `CC(C)CC(CS)C(=O)NCC(=O)N[C@@H](CCC(N)=O)C(=O)O` (mixture of isomers) [Example 59, (±)-N^2-[N-[2-(Mercaptomethyl)-4-methyl-1-oxopentyl]-glycyl]-L-glutamine, ammonium salt (1:1)]: it took 330 nM to reach half-maximal inhibition (IC50).
Consider `CC(C)C[C@H](NC(=O)[C@H](Cc1ccccc1)NC(=O)[C@@H]1CCCC[C@H]1CS)C(=O)O` (mixture of isomers) [Example 67, (trans)-N-[N-[[2-(Mercaptomethyl)cyclohexyl]carbonyl]-L-phenylalanyl]-L-leucine], for which it took 970 nM to reach half-maximal inhibition (IC50).
For `CC(C)C[C@@H](NC(=O)[C@@H](Cc1ccccc1)NC(=O)[C@@H]1CCCC[C@H]1C(=O)O)C(=O)O` (mixture of isomers) [Example 81, (trans)(R,R)-N-[N-[(2-Carboxycyclohexyl)carbonyl]-L-phenylalanyl]-L-leucine], 1200 nM corresponded to half-maximal inhibition (IC50).
The compound `CC(C)CC(CS)C(=O)NCC(=O)O` (racemic) [Example 8, (±)-N-[2-(Mercaptomethyl)-4-methyl-1-oxopentyl]-glycine] gave an IC50 of 280 nM.
For the compound `CCCC(C)C(CS)C(=O)NCC(=O)O` (racemic) [Example 10, (±)-N-[2-(Mercaptomethyl)-3-methyl-1-oxohexyl]-glycine, N-cyclohexylcyclohexanamine salt (1:1)], half-maximal inhibition (IC50) was put at 510 nM.
As for `CC(C)CC(CS)C(=O)N[C@@H](CCCNC(=N)N)C(=O)O` (mixture of isomers) [Example 11, (±)-N^2-[2-(Mercaptomethyl)-4-methyl-1-oxopentyl]-L-arginine], the IC50 stood at 170 nM.
For the compound `CC(CS)C(=O)NCC(=O)O` (racemic) [Example 16, (±)-N-(3-Mercapto-2-methyl-1-oxopropyl)glycine], inhibition was half-maximal at 370 nM (IC50).
The result for `CC(CS)C(=O)N[C@H](C(=O)O)C(C)C` (mixture of isomers) [Example 20, (±)-N-(3-Mercapto-2-methyl-1-oxopropyl)-L-valine] reads 21 nM.
`CSCC[C@H](NC(=O)C(CS)Cc1ccccc1)C(=O)O` (mixture of isomers) [Example 22, (±)-N-[2-(Mercaptomethyl)-1-oxo-3-phenylpropyl]-L -methionine]: the IC50 was found to be 6.7 nM.
As for `O=C(N[C@@H](Cc1ccc(O)cc1)C(=O)O)C(CS)Cc1ccccc1` (mixture of isomers) [Example 29, (±)-N-[2-(Mercaptomethyl)-1-oxo-3-phenylpropyl]-L -tyrosine], the concentration for half-maximal inhibition (IC50) came out at 17 nM.
`CC(C)CC(CS)C(=O)N[C@@H](Cc1ccccc1)C(=O)O` (mixture of isomers) [Example 33, (±)-N-[2-(Mercaptomethyl)-4-methyl-1-oxopentyl]-L-phenylalanine] yielded an IC50 of 9 nM.
The result for `CC(C)CC(CS)C(=O)N[C@@H](CC(C)C)C(=O)O` (mixture of isomers) [Example 34, (±)-N-[2-(Mercaptomethyl)-4-methyl-1-oxopentyl]-L-leucine] reads 12 nM; that for `O=C(O)CCNC(=O)C(CS)Cc1ccccc1` (racemic) [Example 45, (±)-3-[[2-(Mercaptomethyl)-1-oxo-3-phenylpropyl]amino]propanoic acid], 8.9 nM.
The result for `O=C(O)CCCNC(=O)C(CS)Cc1ccccc1` (racemic) [Example 46, (±)-4-[[2-(Mercaptomethyl)-1-oxo-3-phenylpropyl]amino]butanoic acid] reads 6 nM; that for `O=C(O)CCCCNC(=O)C(CS)Cc1ccccc1` (racemic) [Example 49, (±)-5-[[2-(Mercaptomethyl)-1-oxo-3-phenylpropyl]amino]pentanoic acid], 22 nM.
On to `O=C(O)CCCCCNC(=O)C(CS)Cc1ccccc1` (racemic) [Example 50, (±)-6-[[2-(Mercaptomethyl)-1-oxo-3-phenylpropyl]amino]hexanoic acid], for which the midpoint of inhibition, the IC50, lay at 59 nM.
`O=C(O)CCCCCCCCCCNC(=O)C(CS)Cc1ccccc1` (racemic) [Example 53, (±)-11-[[2-(Mercaptomethyl)-1-oxo-3-phenylpropyl]amino]undecanoic acid] returned a half-inhibitory concentration (IC50) of 76 nM.
